Laboratory results as given in US20030078251A1, “Benzoxazepinones and their use as squalene synthase inhibitors” (priority 2000, published 2003).
pIC50: −log10 of the molar value.

molecular target: T1, squalene synthase (Homo sapiens, UniProt P37268); experiment: Squalene synthase inhibiting activity (Test Example 1); format: biochemical; conditions: enzyme solution from human hepatic cancer cell HepG2; 5 μM [1-3H] farnesyl pyrophosphate, 37° C., 45 minutes; read-out: Inhibiting activity (IC50, 10^−9M)
T1 construct: endogenous in cells; host or cells: HepG2 (human hepatic cancer cells); sediment of the 105000 x g centrifugation (microsomal fraction)
T1 sequence (P37268 1-417): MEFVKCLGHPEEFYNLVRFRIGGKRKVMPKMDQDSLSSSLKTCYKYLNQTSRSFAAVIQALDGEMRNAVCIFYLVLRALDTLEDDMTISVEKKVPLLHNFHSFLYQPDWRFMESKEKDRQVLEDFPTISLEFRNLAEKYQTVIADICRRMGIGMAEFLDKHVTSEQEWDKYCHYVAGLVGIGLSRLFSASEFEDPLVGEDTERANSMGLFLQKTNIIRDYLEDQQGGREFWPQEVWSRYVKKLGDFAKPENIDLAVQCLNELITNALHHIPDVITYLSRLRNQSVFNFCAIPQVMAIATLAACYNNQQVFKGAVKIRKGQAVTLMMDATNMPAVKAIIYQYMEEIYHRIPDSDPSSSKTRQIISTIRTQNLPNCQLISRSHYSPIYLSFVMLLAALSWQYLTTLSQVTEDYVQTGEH
Protocol: Squalene Synthase Inhibiting Activity
The squalene synthase inhibiting activity was measured using an enzyme solution obtained according to a preparing method described below as follows:
That is, an enzyme solution (protein 0.8 μg) prepared according to the following preparing method was added to a solution containing 5 μM [1-^3H] farnesyl pyrophosphate (specific activity […]), 1 mM NADPH (reduced type nicotinamide adenine dinucleotide phosphate), 5 mM MgCl2, 6 mM glutathione, 100 mM potassium phosphate buffer (pH 7.4) and a test drug (added as an aqueous solution or DMSO solution)(total amount 50 μl), which was reacted at 37° C. for 45 minutes. 150 μl of a mixed solution of chloroform and methanol (1:2) was added to stop the reaction, and 50 μl of chloroform and 50 μl of a 3N sodium hydroxide solution were added. 50 μl of the chloroform layer (lower layer) containing the reaction product, a main component of which is squalene, and 3 ml of toluene series liquid scintillator were mixed, and the radioactivity thereof was measured by a liquid scintillation counter.
The squalene synthase inhibiting activity was shown by the concentration at which 50% of the radioactivity […] into the chloroform layer (IC50, molar concentration (M)).
Preparation of Human Enzyme Solution
Human hepatic cancer cell HepG2 (about 1×10^9 cells) was grown in Dulbecco's modified Eagle medium (37° C., in the presence of 5%CO2) containing 10% bovine fetal serum, the resulting cells were suspended in 10 ml of ice-cooled buffer [100 mM potassium phosphate buffer (pH 7.4), 30 mM nicotinamide, 2.5 mM MgCl2], and ruptured by the ultrasonication (30 seconds, 2 times). The resulting sonicate was centrifuged at 10000× g for 20 minutes (4° C.). The resulting supernatant was centrifuged at 105000× g for 90 minutes (4° C.), then the sediment was suspended in an ice-cooled 100 mM potassium phosphate buffer (pH 7.4), and centrifuged again at 105000× g for 90 minutes (4° C.). This was suspended in an ice-cooled 100 mM potassium phosphate buffer (pH 7.4) (protein concentration about 4 mg/ml), which was used as an enzyme solution.

Row | pIC50 | Compound
1 | 7.43 | COc1cccc([C@H]2O[C@H](CC(=O)NCc3cccc(CCC(=O)O)c3)C(=O)N(CC(C)(C)CO)c3ccc(Cl)cc32)c1OC [Example 64, 3-[3-[[[(3R,5S)-7-chloro-5-(2,3-dimethoxyphenyl)-1-(3-hydroxy-2,2-dimethylpropyl)-2-oxo-1,2,3,5-tetrahydro-4,1-benzoxazepin-3-yl]acetyl]aminomethyl]phenyl]propionic Acid]
2 | 7.60 | COc1cccc([C@H]2O[C@H](CC(=O)NCCc3occc3C(=O)O)C(=O)N(CC(C)(C)CO)c3ccc(Cl)cc32)c1OC [Example 26, 2-[2-[[[(3R,5S)-7-chloro-5-(2,3-dimethoxyphenyl)-1-(2,2-dimethyl-3-hydroxypropyl)-2-oxo-1,2,3,5-tetrahydro-4,1-benzoxazepin-3-yl]acetyl]amino]ethyl]furan-3-carboxylic acid]
3 | 7.03 | COc1ccc(CCC(=O)O)cc1NC(=O)C[C@H]1O[C@H](c2cccc(OC)c2OC)c2cc(Cl)ccc2N(CC(C)(C)CO)C1=O [Example 37, 3-[3-[[(3R,5S)-7-chloro-5-(2,3-dimethoxyphenyl)-1-(3-hydroxy-2,2-dimethylpropyl)-2-oxo-1,2,3,5-tetrahydro-4,1-benzoxazepin-3-yl]acetyl]amino-4-methoxyphenyl]propionic Acid]
4 | 7.30 | COc1cccc([C@H]2O[C@H](CC(=O)Nc3cccc(CCC(=O)O)c3)C(=O)N(CC(C)(C)C)c3ccc(Cl)cc32)c1OC [Example 60, 3-[3-[[(3R,5S)-7-chloro-5-(2,3-dimethoxyphenyl)-1-neopentyl-2-oxo-1,2,3,5-tetrahydro-4,1-benzoxazepin-3-yl]acetyl]aminophenyl]propionic Acid]
5 | 7.00 | COc1cccc([C@H]2O[C@H](CC(=O)NC[C@H]3CC[C@H](C(=O)O)CC3)C(=O)N(CC(C)(C)CO)c3ccc(Cl)cc32)c1OC [Example 23, trans-4-[[(3R,5S)-7-chloro-5-(2,3-dimethoxyphenyl)-1-(3-hydroxy-2,2-dimethylpropyl)-2-oxo-1,2,3,5-tetrahydro-4,1-benzoxazepin-3-yl]acetyl]aminomethyl-1-cyclohexanecarboxylic acid]

Row | Compound | pIC50
6 | COc1cccc([C@H]2O[C@H](CC(=O)NC[C@H]3CC[C@H](C(=O)O)CC3)C(=O)N(CC(C)(C)COC(C)=O)c3ccc(Cl)cc32)c1OC [Example 24, trans-4-[[(3R,5S)-1-(3-acetoxy-2,2-dimethylpropyl)-7-chloro-5-(2,3-dimethoxyphenyl)-2-oxo-1,2,3,5-tetrahydro-4,1-benzoxazepin-3-yl]acetyl]aminomethyl-1-cyclohexanecarboxylic acid] | 6.77

test system: not given; experiment: not given; conditions: not given

Row | melting point [°C] | Compound
7 | 175.4 to 176.3 | COc1cccc([C@H]2O[C@H](CC(=O)Nc3ccc4oc(C(=O)O)c(OC)c4c3)C(=O)N(CC(C)(C)CO)c3ccc(Cl)cc32)c1OC [Example 153, 5-[[[(3R,5S)-7-chloro-5-(2,3-dimethoxyphenyl)-7-chloro-1-(3-hydroxy-2,2-dimethylpropyl)-2-oxo-1,2,3,5-tetrahydro-4,1-benzoxazepin-3-yl]acetyl]amino]-3-methoxy-1-benzofuran-2-carboxylic acid]
8 | 137 to 139 | COc1cccc([C@@H]2O[C@@H](CC(=O)Nc3cccc(CCC(=O)O)c3)C(=O)N(CC(C)(C)CO)c3ccc(Cl)cc32)c1OC [Example 120, 3-[3-[[(3S,5R)-7-Chloro-5-(2,3-dimethoxyphenyl)-1-(3-hydroxy-2,2-dimethylpropyl)-2-oxo-1,2,3,5-tetrahydro-4,1-benzoxazepin-3-yl]acetyl]aminophenyl]propionic Acid]
9 | 198.5 to 199.5 | CCCc1cc(NC(=O)C[C@H]2O[C@H](c3cccc(OC)c3OC)c3cc(Cl)ccc3N(CC(C)(C)CO)C2=O)cc2cc(C(=O)O)oc12 [Example 163, 5-[[[(3R,5S)-7-Chloro-5-(2,3-dimethoxyphenyl)-1-(3-hydroxy-2,2-dimethylpropyl)-2-oxo-1,2,3,5-tetrahydro-4,1-benzoxazepin-3-yl]acetyl]amino]-7-propyl-1-benzofuran-2-carboxylic acid]
10 | 188.6 to 189.7 | COc1cccc([C@H]2O[C@H](CC(=O)Nc3cc(OC(C)C)c4oc(C(=O)O)cc4c3)C(=O)N(CC(C)(C)CO)c3ccc(Cl)cc32)c1OC [Example 152, 5-[[[(3R,5S)-7-Chloro-5-(2,3-dimethoxyphenyl)-1-(3-hydroxy-2,2-dimethylpropyl)-2-oxo-1,2,3,5-tetrahydro-4,1-benzoxazepin-3-yl]acetyl]amino]-7-[(1-methylethyl)oxy]-1-benzofuran-2-carboxylic acid]
11 | 123 to 126 | COc1cccc([C@@H]2O[C@@H](CC(=O)NCCc3occc3C(=O)O)C(=O)N(CC(C)(C)CO)c3ccc(Cl)cc32)c1OC [Example 119, 2-[2-[[[(3S,5R)-7-Chloro-5-(2,3-dimethoxyphenyl)-1-(3-hydroxy-2,2-dimethylpropyl)-2-oxo-1,2,3,5-tetrahydro-4,1-benzoxazepin-3-yl]acetyl]amino]ethyl]furan-3-carboxylic acid]
12 | 187.9 to 188.9 | COc1cccc([C@H]2O[C@H](CC(=O)Nc3ccc4[nH]c(SCC(=O)O)nc4c3)C(=O)N(CC(C)(C)CO)c3ccc(Cl)cc32)c1OC [Example 148, 2-[[5-[[[(3R,5S)-7-Chloro-5-(2,3-dimethoxyphenyl)-1-(3-hydroxy-2,2-dimethylpropyl)-2-oxo-1,2,3,5-tetrahydro-4,1-benzoxazepin-3-yl]acetyl]amino]-1H-benzimidazol-2-yl]sulfanyl]acetic acid]
13 | 162 to 165 | COc1cccc([C@H]2O[C@H](CC(=O)Nc3cc(CCC(=O)O)ccc3OCCCc3ccccc3)C(=O)N(CC(C)(C)CO)c3ccc(Cl)cc32)c1OC [Example 125, 3-[3-[[[(3R,5S)-7-Chloro-5-(2,3-dimethoxyphenyl)-1-(3-hydroxy-2,2-dimethylpropyl)-2-oxo-1,2,3,5-tetrahydro-4,1-benzoxazepin-3-yl]acetyl]amino]-4-(3-phenylpropyloxy)phenyl]propionic Acid]
14 | 151 to 153 | COc1cccc([C@@H]2O[C@@H](CC(=O)Nc3cc(CCC(=O)O)ccc3F)C(=O)N(CC(C)(C)CO)c3ccc(Cl)cc32)c1OC [Example 121, 3-[3-[[[(3S,5R)-7-Chloro-5-(2,3-dimethoxyphenyl)-1-(3-hydroxy-2,2-dimethylpropyl)-2-oxo-1,2,3,5-tetrahydro-4,1-benzoxazepin-3-yl]acetyl]amino]-4-fluorophenyl]propionic Acid]
15 | 175 to 176.5 | COc1cccc([C@H]2O[C@H](CC(=O)Nc3ccc4oc(C(=O)O)c(C)c4c3)C(=O)N(CC(C)(C)CO)c3ccc(Cl)cc32)c1OC [Example 160, 5-[[[(3R,5S)-7-Chloro-5-(2,3-dimethoxyphenyl)-1-(3-hydroxy-2,2-dimethylpropyl)-2-oxo-1,2,3,5-tetrahydro-4,1-benzoxazepin-3-yl]acetyl]amino]-3-methyl-1-benzofuran-2-carboxylic acid]

Second part, the compound before the results:

Row | Compound | melting point [°C]
16 | COc1cccc([C@H]2O[C@H](CC(=O)NCCc3occc3C(=O)O)C(=O)N(CC(C)(C)CO)c3ccc(Cl)cc32)c1OC [Example 26, 2-[2-[[[(3R,5S)-7-chloro-5-(2,3-dimethoxyphenyl)-1-(2,2-dimethyl-3-hydroxypropyl)-2-oxo-1,2,3,5-tetrahydro-4,1-benzoxazepin-3-yl]acetyl]amino]ethyl]furan-3-carboxylic acid] | 126 to 129
17 | COc1cccc([C@H]2O[C@H](CC(=O)Nc3cccc(CCC(=O)O)c3)C(=O)N(CC(C)(C)C)c3ccc(Cl)cc32)c1OC [Example 60, 3-[3-[[(3R,5S)-7-chloro-5-(2,3-dimethoxyphenyl)-1-neopentyl-2-oxo-1,2,3,5-tetrahydro-4,1-benzoxazepin-3-yl]acetyl]aminophenyl]propionic Acid] | 172 to 173
18 | COc1cccc([C@H]2O[C@H](CC(=O)Nc3cc(C(=O)O)ccc3F)C(=O)N(CC(C)(C)CO)c3ccc(Cl)cc32)c1OC [Example 106, 3-[[[(3R,5S)-7-Chloro-5-(2,3-dimethoxyphenyl)-1-(3-hydroxy-2,2-dimethylpropyl)-2-oxo-1,2,3,5-tetrahydro-4,1-benzoxazepin-3-yl]acetyl]amino]-4-fluorobenzoic acid] | 163 to 166
19 | CCOc1ccc(CCC(=O)O)cc1NC(=O)C[C@H]1O[C@H](c2cccc(OC)c2OC)c2cc(Cl)ccc2N(CC(C)(C)COC(C)=O)C1=O [Example 50, 3-[3-[[[(3R,5S)-1-(3-acetoxy-2,2-dimethylpropyl)-7-chloro-5-(2,3-dimethoxyphenyl)-2-oxo-1,2,3,5-tetrahydro-4,1-benzoxazepin-3-yl]acetyl]amino]-4-ethoxyphenyl]propionic Acid] | 175 to 176
